Like-named read-outs stand apart in the source and are kept apart here.
Key:
Type in all cases: cell-based
[1] = system: drug-resistant Escherichia coli II (drug-resistant Escherichia coli 1864); experiment: Chessboard microbroth dilution MIC/FIC, compound A in combination with meropenem; conditions: strain 1864
Text: (§1) This experiment is designed to determine the minimum inhibitory concentration (MIC) of compound A in combination with meropenem against drug-resistant Escherichia coli I (a strain resistant to carbapenem antibiotics) and drug-resistant Escherichia coli II (a strain resistant to fluoroquinolone antibiotics, non-fluoroquinolone antibiotics, aminoglycoside antibiotics, glycopeptide antibiotics and carbapenem antibiotics), and to calculate the fractional inhibitory concentration (FIC) index.
(§2) 1 strain of drug-resistant Escherichia coli II, namely drug-resistant Escherichia coli 1864, is provided by the School of Pharmacy of Fudan University. This strain is resistant to fluoroquinolone antibiotics (such as levofloxacin), non-fluoroquinolone antibiotics (such as nalidixic acid, nemofloxacin), aminoglycoside antibiotics (such as gentamicin), glycopeptide antibiotics (such as vancomycin) and carbapenem antibiotics (such as meropenem).
(§3) According to the recommendation of the Clinical and Laboratory Standards Institute (CLSI), the microbroth dilution method designed by the chessboard method was used to determine the minimum inhibitory concentration (MIC) of compound A in combination with meropenem against the above strains, and the fractional inhibitory concentration (FIC) index was calculated.
(§4) Compound A was dissolved in dimethyl sulfoxide to obtain a stock solution I with a concentration of 1280 mg/L. The stock solution I was diluted to 512 mg/L with sterile water to obtain a gradient dilution first tube solution I. The gradient dilution first tube solution I was subjected to 1:1 gradient dilution with sterile water to obtain a working solution I with a gradient range of 512 to 0.25 mg/L.
(§5) Meropenem was dissolved in sterile water to obtain a stock solution II with a concentration of 5120 mg/L. The stock solution II was diluted to 1024 mg/L with sterile water to obtain a gradient dilution first tube solution II. The gradient dilution first tube solution II was subjected to 1:1 gradient dilution with sterile water to obtain a working solution II with a gradient range of 1024 to 0.5 mg/L.
(§6) According to the method in Example 1, a drug sensitive plate was prepared with working solution I and working solution II, and the specific process will not be repeated here.
(§7) (2) The culture medium of the bacterial solution: Cation-Adjusted Mueller-Hinton Broth (CAMHB), a product of BBL, USA, batch number 9015952.
(§8) (3) Formulation method of bacterial solution: According to the direct colony suspension method, the test bacteria cultured overnight were prepared into a 0.5 McFarland turbidity tube using physiological saline. Then, the resulting solution was dilute 100 times with the above culture medium. 100 μL of the resulting bacterial solution was mixed well with the solution (100 μL) in each well of the drug sensitivity plate, and the final inoculation amount was 10^5 CFU/mL.
(§9) (4) Culture conditions: Culturing at 35±2° C. for 20 hours in air.
(§10) (1) The experimental results were determined according to the standard of CLSI 2019 M100 29th edition.
(§11) wherein: FIC≤0.5 indicates synergistic effect; 0.5<FIC≤1.0 indicates additive effect; 1<FIC≤2.0 indicates irrelevant effect; and FIC>2 indicates antagonistic effect.

[2] = system: drug-resistant Escherichia coli I (a strain resistant to carbapenem antibiotics); experiment: as above; conditions: for MIC: Escherichia coli, read-out: Meropenem MIC alone; for Meropenem MIC in combination: with compound A
Text: as §1
3 strains of drug-resistant Escherichia coli I, namely drug-resistant Escherichia coli 18-W09-093, drug-resistant Escherichia coli 18-W37-025, and drug-resistant Escherichia coli 18-W37-032, are provided by Shanghai Junji Medical Laboratory Co., Ltd. These 3 strains are all resistant to carbapenem antibiotics (e.g., meropenem).
as §3, §4, §5, §6, §7, §8, §9, §10, §11

[3] = system: drug-resistant Escherichia coli 1864; experiment: MIC of antibiotics against drug-resistant Escherichia coli II (resistance profile of the strain); conditions: drug-resistant Escherichia coli 1864; read-out: MIC
Text: as §2

[4] = system: carbapenem-resistant Acinetobacter baumannii; experiment: Chessboard microbroth dilution MIC/FIC, compound 1 in combination with polymyxin; conditions: for MIC: Acinetobacter baumannii, read-out: Compound 1 MIC alone; for Compound 1 MIC in combination: with polymyxin
Text: This experiment is designed to determine the minimum inhibitory concentration (MIC) of compound 1 in combination with polymyxin against carbapenem-resistant Acinetobacter baumannii and to calculate the fractional inhibitory concentration (FIC) index.
Test bacteria: 10 strains of carbapenem-resistant Acinetobacter baumannii are clinically isolated strains, and are provided by Shanghai Junji Medical Laboratory Co., Ltd.
as §3, with “compound 1” for “compound A”, “with polymyxin” for “with meropenem”
Compound 1 was dissolved in dimethyl sulfoxide to obtain a stock solution I with a concentration of 51200 mg/L. The stock solution I was subjected to 1:1 gradient dilution with dimethyl sulfoxide to obtain a dilution solution with a concentration range of 51200 to 25 mg/L. The corresponding concentrations were added to sterile water for 100-fold dilution to obtain working solution I with a concentration range of 512 to 0.25 mg/L.
Polymyxin was dissolved in sterile water to obtain a stock solution with a concentration of 5120 mg/L. The polymyxin stock solution was subjected to 1:1 gradient dilution with sterile water to obtain a working solution II with a concentration range of 512 to 0.25 mg/L.
as §6, §7, §8, §9
(1) The experimental results were determined according to the standard of CLSI 2020 M100 30th edition.
as §11

[5] = strain 18-J11-001, compound 1 + polymyxin
[6] = strain 18-J11-002, compound 1 + polymyxin
[7] = strain 18-J11-034, compound 1 + polymyxin
[8] = strain 18-J11-097, compound 1 + polymyxin
[9] = strain 18-J15-030, compound 1 + polymyxin
[10] = strain 18-J21-095, compound 1 + polymyxin
[11] = strain 18-J24-015, compound 1 + polymyxin
[12] = strain 18-J24-033, compound 1 + polymyxin
[13] = strain 18-J40-021, compound 1 + polymyxin
[14] = strain 18-J51-052, compound 1 + polymyxin

## C[C@@H](O)[C@H]1C(=O)N2C(C(=O)O)=C(S[C@@H]3CN[C@H](C(=O)N(C)C)C3)[C@H](C)[C@H]12 [Meropenem, reference compound]
[1]; Escherichia coli, read-out: Meropenem MIC alone
  MIC: 128 µg/mL
[1]; with compound A
  Meropenem MIC in combination: 2 µg/mL
[2]; strain 18-W09-093
  MIC: 256 µg/mL
  Meropenem MIC in combination: 2 µg/mL
[2]; strain 18-W37-025
  MIC: 128 µg/mL
  Meropenem MIC in combination: 1 µg/mL
[2]; strain 18-W37-032
  MIC: 128 µg/mL
  Meropenem MIC in combination: 4 µg/mL
[3]
  MIC: > 64 µg/mL

## O=[N+]([O-])c1c(Br)c(Cl)c2cccnc2c1O [Compound 1, 6-bromo-5-chloro-7-nitroquinolin-8-ol]
[4]; strain 18-J11-001
  MIC: 8 µg/mL
  Compound 1 MIC in combination: 0.5 µg/mL
[4]; strain 18-J11-002
  MIC: 4 µg/mL
  Compound 1 MIC in combination: 2 µg/mL
[4]; strain 18-J11-034
  MIC: 4 µg/mL
  Compound 1 MIC in combination: 1 µg/mL
[4]; strain 18-J11-097
  MIC: 4 µg/mL
  Compound 1 MIC in combination: 0.5 µg/mL
[4]; strain 18-J15-030
  MIC: 16 µg/mL
  Compound 1 MIC in combination: 1 µg/mL
[4]; strain 18-J21-095
  MIC: 8 µg/mL
  Compound 1 MIC in combination: 4 µg/mL
[4]; strain 18-J24-015
  MIC: 8 µg/mL
  Compound 1 MIC in combination: 1 µg/mL
[4]; strain 18-J24-033
  MIC: 4 µg/mL
  Compound 1 MIC in combination: 1 µg/mL
[4]; strain 18-J40-021
  MIC: 8 µg/mL
  Compound 1 MIC in combination: 1 µg/mL
[4]; strain 18-J51-052
  MIC: 4 µg/mL
  Compound 1 MIC in combination: 2 µg/mL
[4]; compound 1 + polymyxin
  change of the MIC of polymyxin by the combination: significantly reduce
  effect of the combination (summary of Table 2): synergistic effect (FIC≤0.5 indicates synergistic effect)
[4]; [5]
  FIC index: 0.303
  Results: Synergistic
[4]; [6]
  FIC index: 0.740
  Results: Additive
[4]; [7]
  FIC index: 0.500
  Results: Synergistic
[4]; [8]
  FIC index: 0.365
  Results: Synergistic
[4]; [9]
  FIC index: 0.313
  Results: Synergistic
[4]; [10]
  FIC index: 0.740
  Results: Additive
[4]; [11]
  FIC index: 0.375
  Results: Synergistic
[4]; [12]
  FIC index: 0.500
  Results: Synergistic
[4]; [13]
  FIC index: 0.250
  Results: Synergistic
[4]; [14]
  FIC index: 0.750
  Results: Additive

Reference: US20260240832A1, “USE OF NITROXOLINE COMPOUND IN ENHANCING EFFECT OF ANTIBACTERIAL AGENT” (Jiangsu Yahong Meditech Co., Ltd., priority 2022, published 2026)
